We go through two molecules from ChEMBL document CHEMBL4000204, “Improving potency and metabolic stability by introducing an alkenyl linker to pyridine-based histone deacetylase inhibitors for orally available RUNX3 modulators” (Eur J Med Chem, 2017).

The nature of series [1]: in vitro. Conditions: mouse, liver microsomes.
A short description of series [2]: in vitro. Conditions: mouse, liver microsomes. This is another data set of the same source.

Structures are written as SMILES.

As a reminder, the fraction remaining is what is left of the initial amount, in per cent. The low end stands for a greater loss, the high end for greater stability.

As for `O=C(/C=C/c1cccn(CCCc2ccc3ccccc3c2)c1=O)NO`, the amount remaining at 0.5 h, 1000 µM in series [1] is 35.5%; in series [2], 90.3%.

Regarding `O=C1CC2(CCCC2)CC(=O)N1CCCCN1CCN(c2ncccn2)CC1` [BUSPIRONE], the share remaining at 0.5 h, 1000 µM in series [1] was found to be 0.29%; in series [2], 99.1%.
